Values belong to the molecule of their own block, whether it stands above or below them.
Columns and labels:
[1] = system: OCI-AML5 cells; assay: Cell cycle assay, OCI-AML5 cells; format: cell-based, human; conditions: 2 μM and 4 μM, 48 h
Protocol: (§1) The samples of fixed cells were stained with 50 μg/ml Propidium iodide (PI, Sigma) in the dark for 30 min at room temperature, following the manufacturer’s protocol. Then the samples were tested by flow cytometer (Becton, Dickinson and Company, NJ). Data were analyzed via CellQuest software.

[2] = system: CESS cells; assay: MTT antiproliferative assay, CESS cells; format: cell-based, human; conditions: 72 h
Protocol: (§2) Cells were grown in a 5% CO2 incubator at 37 °C. We used trypsin to digest cells in logarithmic growth phase. Then, we plated the cells in 96-well plates at 5000 cells per well evenly. After cell adherence, chalcones were added in the 96-well plates for 48 h or 72 h. We added MTT reagent to each well and incubated for 2 h in the incubator. Finally, the absorbance value was measured at 490 nm after treatment with DMSO.

[3] = system: ML-2 cells; assay: Apoptosis assay (Annexin V-FITC/PI flow cytometry), ML-2 cells; format: cell-based, human; conditions: 48 h
Protocol: (§3) ML-2 cells and OCI-AML5 cells were seeded in 6-well culture plates and treated with certain concentration of 4′-O-Methylbroussochalcone B for 48 h. Cells were harvested and suspended in binding buffer containing Annexin V-FITC (0.5 mg/mL) and PI (0.5 mg/mL) then. After that, samples were incubated for 25 min in dark and analyzed with flow cytometry (Becton, Dickinson and Company, NJ).

[4] = system: OCI-AML5 cells; assay: Apoptosis assay (Annexin V-FITC/PI flow cytometry), OCI-AML5 cells; format: cell-based, human; conditions: 48 h
Protocol: as §3

[5] = system: ML-2 cells; assay: Cell cycle assay, ML-2 cells; format: cell-based, human; conditions: 2 μM and 4 μM, 48 h
Protocol: as §1

[6] = system: β-tubulin; assay: Immunofluorescence staining of β-tubulin in ML-2 cells; format: cell-based, human; conditions: 1 μM and 2 μM, 24 h
Protocol: ML-2 cells were seeded into 6-well plates and then treated with 4′-O-Methylbroussochalcone B for 24 h. ML-2 cells were washed with phosphate buffer solution (PBS), and then fixed in 4% paraformaldehyde. After blocking for 0.5 h in 5% goat serum albumin, ML-2 cells were incubated with anti-β-tubulin for 2 h. Then, ML-2 cells were washed by PBS and labeled by 4, 6-diamidino-2-phenylindole.

[7] = system: OCI-AML5 cells; assay: Transwell migration assay, OCI-AML5 cells; format: cell-based, human; conditions: 24 h
Protocol: (§4) The cells (100 μl, 1 × 10^6 cells/ml) were suspended in the medium which contained 0.1% FBS and plated to the upper chamber of the transwell. The lower wells were incubated with the addition of the medium (600 μl per well), which included CCL25 (100 ng/ml; Cedarlane Laboratories, Burlington, Canada) and 0.1% FBS. The cells were hatched for 24 h at 37 °C with 5% CO2. Finally, the cells in the lower chamber were counted under a light microscope.

[8] = system: OCI-AML5 cells; assay: MTT antiproliferative assay, OCI-AML5 cells; format: cell-based, human; conditions: 72 h
Protocol: as §2

[9] = system: GDM-1 cells; assay: MTT antiproliferative assay, GDM-1 cells; format: cell-based, human; conditions: 72 h; for cell proliferation rate: 16 μM
Protocol: as §2

[10] = system: ML-2 cells; assay: MTT antiproliferative assay, ML-2 cells; format: cell-based, human; conditions: 72 h
Protocol: as §2

[11] = system: ML-2 cells; assay: Transwell migration assay, ML-2 cells; format: cell-based, human; conditions: 24 h
Protocol: as §4

[12] = system: tubulin; assay: Tubulin polymerization assay in vitro; format: biochemical; conditions: 2 mg/mL tubulin, 60 min, 37 °C; read-out: IC50, inhibition of tubulin polymerization
Protocol: An amount of 2 mg/mL tubulin was resuspended in PEM buffer, consisted of 80 mM PIPES (pH 6.9), 2 mM MgCl2, 0.5 mM EGTA, and 15% glycerol. 4′-O-Methylbroussochalcone B (1 μM, 3 μM and 6 μM) was preincubated on ice. The reaction was monitored by a spectrophotometer in absorbance at 340 nm at 37 °C.
The tubulin assembly assay measured the extent of assembly of 2 mg/mL tubulin after 60 min at 37 °C. Data are presented as mean from three independent experiments.
The tubulin assembly assay measured the extent of assembly of 2 mg/mL tubulin after 60 minutes at 37 °C. Data are presented as mean from three independent experiments.

[13] = system: colchicine binding site of β-tubulin; assay: EBI competition assay in ML-2 cells; format: cell-based, human; conditions: preincubation at 10 μM, Western Blot
Protocol: ML-2 cells were seeded in 6-well plates for 24 h. 4′-O-Methylbroussochalcone B and colchicine treated them for 2 h respectively. Then, EBI were added. After 90 min, ML-2 cells were harvested to do Western Blot analysis. The signals were then visualized using chemiluminescent substrate (Zhengzhou research company, Zhengzhou, China).

IC50 [8]: 2.03 µM
IC50 [12]: 2.86 µM
Molecule: 4′-O-Methylbroussochalcone B
cell cycle distribution (G2-M phase) [1]: arrested in the G2-M phase significantly
IC50 [2]: 4.2 µM
percentage of apoptotic cells (early and late phase) ([3]; 2 μM): 13.68%
percentage of apoptotic cells (early and late phase) ([3]; 4 μM): 55.04%
apoptotic rate ([4]; 2 μM): 12.84%
apoptotic rate ([4]; 4 μM): 24.13%
cell cycle distribution (G2-M phase) [5]: arrested in the G2-M phase significantly
expression of β-tubulin (immunofluorescence) [6]: suppressed in a concentration-dependent manner
cell migration [7]: evidently inhibited
cell proliferation rate [9]: 8.14%
IC50 [9]: 3.57 µM
IC50 [10]: 1.16 µM
cell migration [11]: evidently inhibited
formation of EBI: β-tubulin adduct [13]: prevented the formation of EBI: β-tubulin adduct

IC50 [12]: 3.11 ± 0.1 µM
Molecule: CC1(C)C=Cc2cc(C(=O)/C=C/c3ccc(O)cc3)c(O)cc2O1 [Bavachromene]
cell proliferation rate [9]: 29.40%

IC50 [12]: 5.13 ± 0.45 µM
Molecule: CC(C)=CCc1cc(C(=O)/C=C/c2ccc(O)cc2)c(O)cc1O [Broussochalcone B]
cell proliferation rate [9]: 29.67%

IC50 [12]: 4.39 ± 0.26 µM
Molecule: CC1(C)CCc2c(ccc(C(=O)/C=C/c3ccc(O)cc3)c2O)O1 [Dorsmanin A]
cell proliferation rate [9]: 36.67%

IC50 [12]: 6.38 ± 0.12 µM
Molecule: CC(C)=CCc1c(O)ccc(C(=O)/C=C/c2ccc(O)cc2)c1O [Isobavachalcone]
cell proliferation rate [9]: 57.33%

IC50 [12]: 8.24 ± 0.74 µM
Molecule: CC1(C)C=Cc2c(ccc(C(=O)/C=C/c3ccc(O)cc3)c2O)O1 [Isobavachromene]
cell proliferation rate [9]: 69.00%

Source: PMC7825173, “4’-O-Methylbroussochalcone B as a novel tubulin polymerization inhibitor suppressed the proliferation and migration of acute myeloid leukaemia cells” (BMC Cancer, 2021)
